The experiment has as its system T1, PtTA.
T1 construct: PLP enzyme
Nature of the experiment: initial rates, chiral HPLC of L-PPT, Michaelis-Menten fit. It counts as biochemical, Zestomonas thermotolerans. Conditions: PPO 1-100 mM; co-substrate L-amino acid 100 mM (L-Glu presumably); 0.1 mM PLP; 50 mM phosphate pH 8.0; 55 °C.

This passage reports Km results from publication PMC10827958, “Identification of a novel thermostable transaminase and its application in L-phosphinothricin biosynthesis” (Applied Microbiology and Biotechnology, 2024).

The structures appear in SMILES notation.

Consider `CP(=O)(O)CCC(=O)C(=O)O` [PPO, 4-(hydroxy(methyl)phosphoryl)-2-oxobutanoic acid], for which the Michaelis-Menten constant (Km) was 35.9 mM.

Broadly, the Km is the concentration of substrate that gives half-maximal velocity.
